Active and inactive are the calls of the source. No rule for the calls is given here.
Test system: CCRIS mutagenicity, Ames/micronucleus/aberration tests
Experiment: CCRIS mutagenicity studies
[1] = Test System: AMES SALMONELLA TYPHIMURIUM, Strain/Indicator: TA98, Metabolic Activation: NONE, Method: STANDARD PLATE
[2] = Test System: AMES SALMONELLA TYPHIMURIUM, Strain/Indicator: TA98, Metabolic Activation: S-9, Method: STANDARD PLATE
[3] = Test System: AMES SALMONELLA TYPHIMURIUM, Strain/Indicator: TA100, Metabolic Activation: NONE, Method: STANDARD PLATE
[4] = Test System: AMES SALMONELLA TYPHIMURIUM, Strain/Indicator: TA100, Metabolic Activation: S-9, Method: STANDARD PLATE

`CNc1ccc(N=Nc2ccc(N(C)C(C)=O)cc2)cc1` was tested, and the mutagenic call (Test System: AMES SALMONELLA TYPHIMURIUM, Strain/Indicator: TA98, Metabolic Activation: RAT, LIVER, S-9, POLYCHLORINATED BIPHENYLS, Method: PREINCUBATION) was “active; positive” and the mutagenic call (Test System: AMES SALMONELLA TYPHIMURIUM, Strain/Indicator: TA100, Metabolic Activation: RAT, LIVER, S-9, POLYCHLORINATED BIPHENYLS, Method: PREINCUBATION) was “active; positive”.
For `CC1=C(C(=O)OCCN(Cc2ccccc2)c2ccccc2)C(c2cccc([N+](=O)[O-])c2)C(P2(=O)OCC(C)(C)CO2)=C(C)N1` (configuration not stated), the mutagenic call (Test System: AMES SALMONELLA TYPHIMURIUM, Strain/Indicator: TA98, Metabolic Activation: NONE) was “inactive; negative”, the mutagenic call (Test System: AMES SALMONELLA TYPHIMURIUM, Strain/Indicator: TA98, Metabolic Activation: RAT, LIVER, S-9, PHENOBARBITAL AND 5,6-BENZOFLAVONE) was “inactive; negative” and the mutagenic call (Test System: AMES SALMONELLA TYPHIMURIUM, Strain/Indicator: TA100, Metabolic Activation: NONE) was “inactive; negative”. The mutagenic call (Test System: AMES SALMONELLA TYPHIMURIUM, Strain/Indicator: TA100, Metabolic Activation: RAT, LIVER, S-9, PHENOBARBITAL AND 5,6-BENZOFLAVONE) was “inactive; negative”, the mutagenic call (Test System: AMES SALMONELLA TYPHIMURIUM, Strain/Indicator: TA1535, Metabolic Activation: NONE) was “inactive; negative” and the mutagenic call (Test System: AMES SALMONELLA TYPHIMURIUM, Strain/Indicator: TA1535, Metabolic Activation: RAT, LIVER, S-9, PHENOBARBITAL AND 5,6-BENZOFLAVONE) was “inactive; negative”. The mutagenic call (Test System: AMES SALMONELLA TYPHIMURIUM, Strain/Indicator: TA1537, Metabolic Activation: NONE) was “inactive; negative”, the mutagenic call (Test System: AMES SALMONELLA TYPHIMURIUM, Strain/Indicator: TA1537, Metabolic Activation: RAT, LIVER, S-9, PHENOBARBITAL AND 5,6-BENZOFLAVONE) was “inactive; negative” and the mutagenic call (Test System: E.COLI, Strain/Indicator: WP2 UVRA, Metabolic Activation: NONE) was “inactive; negative”.
In the case of `O=CC(Cl)(Cl)Cl`, the mutagenic call (Test System: AMES SALMONELLA TYPHIMURIUM, Strain/Indicator: TA97, Metabolic Activation: HAMSTER, LIVER, S-9, AROCLOR 1254 (10%), Method: PREINCUBATION) is reported as “inactive; negative”, the mutagenic call (Test System: AMES SALMONELLA TYPHIMURIUM, Strain/Indicator: TA97, Metabolic Activation: NONE, Method: PREINCUBATION) is reported as “inactive; negative” and the mutagenic call (Test System: AMES SALMONELLA TYPHIMURIUM, Strain/Indicator: TA97, Metabolic Activation: RAT, LIVER, S-9, AROCLOR 1254 (10%), Method: PREINCUBATION) is reported as “inactive; negative”. For the same compound, the mutagenic call (Test System: AMES SALMONELLA TYPHIMURIUM, Strain/Indicator: TA98, Metabolic Activation: HAMSTER, LIVER, S-9, AROCLOR 1254 (10%), Method: PREINCUBATION) was “inactive; negative”, the mutagenic call (Test System: AMES SALMONELLA TYPHIMURIUM, Strain/Indicator: TA98, Metabolic Activation: NONE, Method: PREINCUBATION) was “inactive; negative” and the mutagenic call (Test System: AMES SALMONELLA TYPHIMURIUM, Strain/Indicator: TA98, Metabolic Activation: RAT, LIVER, S-9, AROCLOR 1254 (10%), Method: PREINCUBATION) was “inactive; negative”. The mutagenic call (Test System: AMES SALMONELLA TYPHIMURIUM, Strain/Indicator: TA100, Metabolic Activation: HAMSTER, LIVER, S-9, AROCLOR 1254 (5, 10 OR 30%), Method: PREINCUBATION) was “inactive; negative”, the mutagenic call (Test System: AMES SALMONELLA TYPHIMURIUM, Strain/Indicator: TA100, Metabolic Activation: RAT, LIVER, S-9, AROCLOR 1254 (5, 10 OR 30%), Method: PREINCUBATION) was “inactive; negative” and the mutagenic call (Test System: AMES SALMONELLA TYPHIMURIUM, Strain/Indicator: TA100, Metabolic Activation: RAT, LIVER, S-9, Method: PREINCUBATION) was “active; positive”. For the same compound, the mutagenic call (Test System: AMES SALMONELLA TYPHIMURIUM, Strain/Indicator: TA1535, Metabolic Activation: HAMSTER, LIVER, S-9, AROCLOR 1254 (10%), Method: PREINCUBATION) was “inactive; negative”, the mutagenic call (Test System: AMES SALMONELLA TYPHIMURIUM, Strain/Indicator: TA1535, Metabolic Activation: NONE, Method: PREINCUBATION) was “inactive; negative” and the mutagenic call (Test System: AMES SALMONELLA TYPHIMURIUM, Strain/Indicator: TA1535, Metabolic Activation: RAT, LIVER, S-9, AROCLOR 1254 (10%), Method: PREINCUBATION) was “inactive; negative”.
For `CC(C)(O)[C@H]1CC[C@@](C)([C@H]2[C@@H](O)C[C@@]3(C)[C@@H]4CC[C@H]5C(C)(C)C(=O)CC[C@@]56C[C@@]46CC[C@]23C)O1`, the mutagenic call (End Point: IN VITRO MICRONUCLEUS, Test System: HUMAN PERIPHERAL LYMPHOCYTES, Metabolic Activation: NONE) was “inactive; negative”.
`CC(C)(C)c1cc(-c2ccccc2)ccc1N=O` was tested, and the mutagenic call [1] was “active; positive”, the mutagenic call [2] was “active; positive” and the mutagenic call [3] was “active; positive”. The mutagenic call [4] was “active; positive”.
For `Cc1c2c(c(C)c3c1ccc1ccccc13)[C@@H]1OC1[C@@H](O)[C@@H]2O` (some centres not stated), the mutagenic call (Test System: CHINESE HAMSTER V-79, Strain/Indicator: V-79/OUABAIN, Metabolic Activation: CELL-MEDIATED, Method: STANDARD PLATE) was “active; positive”.
In the case of `O=C(Nc1ccccc1Br)c1csc([N+](=O)[O-])c1`, the mutagenic call [1] is reported as “active; positive” and the mutagenic call [3] is reported as “active; positive”.
`COc1ccc(-c2nc(-c3ccccc3)c(-c3ccccc3)[nH]2)cc1` was tested, and the mutagenic call [1] was “active; positive”, the mutagenic call (Test System: AMES SALMONELLA TYPHIMURIUM, Strain/Indicator: TA98, Metabolic Activation: RAT LIVER S-9, 3-METHYLCHOLANTHRENE, SODIUM PHENOBARBITAL, Method: STANDARD PLATE) was “inactive; negative” and the mutagenic call [3] was “active; positive”. For the same compound, the mutagenic call (Test System: AMES SALMONELLA TYPHIMURIUM, Strain/Indicator: TA100, Metabolic Activation: RAT LIVER S-9, 3-METHYLCHOLANTHRENE, SODIUM PHENOBARBITAL, Method: STANDARD PLATE) was “inactive; negative”.
In the case of `Nc1ccc(-c2ccc(N)c([N+](=O)[O-])c2)cc1`, the mutagenic call (Test System: AMES SALMONELLA TYPHIMURIUM, Strain/Indicator: TA98(1,8-DNP6), Metabolic Activation: NONE, Method: STANDARD PLATE) is reported as “active; positive”, the mutagenic call (Test System: AMES SALMONELLA TYPHIMURIUM, Strain/Indicator: TA98(1,8-DNP6), Metabolic Activation: S-9, Method: STANDARD PLATE) is reported as “active; positive” and the mutagenic call [1] is reported as “active; positive”. The mutagenic call [2] was “active; positive”, the mutagenic call [3] was “inactive; negative” and the mutagenic call [4] was “active; positive”.
In the case of `COS(=O)(=O)c1ccc(C)cc1`, the mutagenic call (End Point: IN VITRO MICRONUCLEUS, Test System: MOUSE LYMPHOMA L5178Y CELLS, Metabolic Activation: NONE) is reported as “active; positive”, the mutagenic call (End Point: IN VITRO MICRONUCLEUS, Test System: MOUSE LYMPHOMA L5178Y CELLS, Metabolic Activation: RAT, LIVER, S-9) is reported as “active; positive” and the mutagenic call (End Point: In vitro micronucleus, Test System: Chinese Hamster Ovary (CHO-WBL) cells, Metabolic Activation: None) is reported as “active; positive (p<0.01)”. For the same compound, the mutagenic call [3] was “active; positive” and the mutagenic call (Test System: AMES SALMONELLA TYPHIMURIUM, Strain/Indicator: TA100, Metabolic Activation: RAT, LIVER, S-9, Method: STANDARD PLATE) was “active; positive”.
In the case of `Cl[C@@H]1O[C@@H]1CBr`, the mutagenic call (Test System: AMES SALMONELLA TYPHIMURIUM, Strain/Indicator: TA100, Metabolic Activation: NONE, Method: PREINCUBATION) is reported as “active; positive”.
With `O=C(O)CCC(=O)Nc1cc(Cl)cc(Cl)c1` the mutagenic call [1] was “inactive; negative”, the mutagenic call (Test System: AMES SALMONELLA TYPHIMURIUM, Strain/Indicator: TA98, Metabolic Activation: RAT, LIVER, S-9, AROCLOR 1254, Method: STANDARD PLATE) was “inactive; negative” and the mutagenic call [3] was “inactive; negative”. For the same compound, the mutagenic call (Test System: AMES SALMONELLA TYPHIMURIUM, Strain/Indicator: TA100, Metabolic Activation: RAT, LIVER, S-9, AROCLOR 1254, Method: STANDARD PLATE) was “inactive; negative”.
`c1ccc(-c2nc3ccccc3o2)cc1` was tested, and the mutagenic call [1] was “inactive; negative” and the mutagenic call [2] was “inactive; negative”.
`O=S(=O)(O)c1ccc(N=Nc2cc(S(=O)(=O)O)c3ccccc3c2O)c2ccccc12` was tested, and the mutagenic call (End Point: IN VITRO CHROMOSOMAL ABERRATIONS, Test System: CHO CELLS, Metabolic Activation: NONE) was “inactive; negative”, the mutagenic call (End Point: IN VITRO CHROMOSOMAL ABERRATIONS, Test System: CHO CELLS, Metabolic Activation: RAT, LIVER, S-9, AROCLOR 1254) was “inactive; negative” and the mutagenic call (Test System: Mouse lymphoma, Strain/Indicator: L5178Y (tk+/tk-), Metabolic Activation: None, Method: Suspension/plate) was “inactive; negative”. For the same compound, the mutagenic call (Test System: Mouse lymphoma, Strain/Indicator: L5178Y (tk+/tk-), Metabolic Activation: Rat, Liver, S-9, Aroclor 1254, Method: Suspension/plate) was “inactive; negative”.

Reference: PubChem BioAssay AID1259407 (Chemical Carcinogenesis Research Information System (CCRIS), 2018)
